Several values for one entry are separate records, joined by “and”; a condition that tells them apart may be missing. Equal values may be shown once. Inconclusive results and toxic doses are left out. Rule for the calls: active = survival T/C of 150% or more; inactive = T/C below 125% in these data.
Tested on: P388 leukemia ip, CD2F1 mice, survival T/C
Assay: NCI In Vivo Anticancer Drug Screen. Data for tumor model P388 Leukemia (intraperitoneal) in CD2F1 (CDF1) mice
Settings: endpoint: median survival time, higher = longer survival
Outline: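 Mice carrying the transplanted tumor received test compound or vehicle. Survival was recorded in each group, and the value is the treated-group measurement divided by that of the vehicle-treated control group.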

[1] = dose: 200.0 mg/kg/injection, schedule: Q01DX005 (ip), vehicle: saline with Tween-80
[2] = dose: 100.0 mg/kg/injection, schedule: Q01DX009 (ip), vehicle: saline
[3] = dose: 100.0 mg/kg/injection, schedule: Q04DX003 (ip), vehicle: Klucel (hydroxypropylcellulose) (HPC)
[4] = dose: 50.0 mg/kg/injection, schedule: Q01DX009 (ip), vehicle: saline with Tween-80
[5] = dose: 100.0 mg/kg/injection, schedule: Q01DX009 (ip), vehicle: saline with Tween-80
[6] = dose: 200.0 mg/kg/injection, schedule: Q01DX009 (ip), vehicle: saline with Tween-80
[7] = dose: 100.0 mg/kg/injection, schedule: Q04DX002 (ip), vehicle: saline with Tween-80
[8] = dose: 200.0 mg/kg/injection, schedule: Q04DX002 (ip), vehicle: saline with Tween-80
[9] = dose: 12.5 mg/kg/injection, schedule: Q01DX009 (ip), vehicle: saline with Tween-80
[10] = dose: 25.0 mg/kg/injection, schedule: Q01DX009 (ip), vehicle: saline with Tween-80
[11] = dose: 60.0 mg/kg/injection, schedule: Q01DX005 (ip), vehicle: saline
[12] = dose: 120.0 mg/kg/injection, schedule: Q01DX005 (ip), vehicle: saline
[13] = dose: 240.0 mg/kg/injection, schedule: Q01DX005 (ip), vehicle: saline
[14] = dose: 60.0 mg/kg/injection, schedule: Q01DX005 (ip), vehicle: saline with Tween-80
[15] = dose: 120.0 mg/kg/injection, schedule: Q01DX005 (ip), vehicle: saline with Tween-80
[16] = dose: 240.0 mg/kg/injection, schedule: Q01DX005 (ip), vehicle: saline with Tween-80
[17] = dose: 60.0 mg/kg/injection, schedule: Q01DX005 (ip), vehicle: Klucel (hydroxypropylcellulose) (HPC)
[18] = dose: 120.0 mg/kg/injection, schedule: Q01DX005 (ip), vehicle: Klucel (hydroxypropylcellulose) (HPC)
[19] = dose: 240.0 mg/kg/injection, schedule: Q01DX005 (ip), vehicle: Klucel (hydroxypropylcellulose) (HPC)
[20] = dose: 50.0 mg/kg/injection, schedule: Q01DX005 (ip), vehicle: saline with Tween-80
[21] = dose: 100.0 mg/kg/injection, schedule: Q01DX005 (ip), vehicle: saline with Tween-80

Measured: T/C

COC(=O)C1(CC(=O)c2ccc(N3CCN(c4ccc(C(=O)CC5(C(=O)OC)NC(=S)NC(=O)C5C#N)cc4)CC3)cc2)NC(=S)NC(=O)C1C#N (stereo not drawn)
inactive: dose: 7.5 mg/kg/injection, schedule: Q01DX005 (ip), vehicle: Klucel (hydroxypropylcellulose) (HPC) 96 % of control | dose: 15.0 mg/kg/injection, schedule: Q01DX005 (ip), vehicle: Klucel (hydroxypropylcellulose) (HPC) 99 % of control | dose: 30.0 mg/kg/injection, schedule: Q01DX005 (ip), vehicle: Klucel (hydroxypropylcellulose) (HPC) 98 % of control and 92 % of control

CC1=C(C)CN(CCC(=O)O)C(C(N)=O)C1 (stereo not drawn)
inactive: dose: 50.0 mg/kg/injection, schedule: Q01DX005 (ip), vehicle: saline 100 % of control | dose: 100.0 mg/kg/injection, schedule: Q01DX005 (ip), vehicle: saline 107 % of control | dose: 200.0 mg/kg/injection, schedule: Q01DX005 (ip), vehicle: saline 100 % of control

COc1cc2c(c(OC)c1OC)-c1ccc(OC)c(=O)cc1[C@@H](NC=O)CC2
inactive: dose: 0.25 mg/kg/injection, schedule: Q01DX009 (ip), vehicle: saline 117 % of control

O=C1OC2C(O)COC2(N=Nc2ccc(Cl)cc2)/C1=N/Nc1ccccc1 (stereo not drawn)
inactive: dose: 6.25 mg/kg/injection, schedule: Q01DX005 (ip), vehicle: saline with Tween-80 104 % of control | dose: 12.5 mg/kg/injection, schedule: Q01DX005 (ip), vehicle: saline with Tween-80 93 % of control | dose: 25.0 mg/kg/injection, schedule: Q01DX005 (ip), vehicle: saline with Tween-80 89 % of control | [1] 90 % of control

COc1ccc[nH]c1=O
inactive: dose: 50.0 mg/kg/injection, schedule: Q01DX009 (ip), vehicle: saline 102 % of control and 103 % of control | [2] 106 % of control and 109 % of control | dose: 200.0 mg/kg/injection, schedule: Q01DX009 (ip), vehicle: saline 100 % of control and 105 % of control | dose: 400.0 mg/kg/injection, schedule: Q01DX009 (ip), vehicle: saline 105 % of control and 112 % of control | dose: 600.0 mg/kg/injection, schedule: Q01DX009 (ip), vehicle: saline 106 % of control and 114 % of control

CC1(c2ccccc2)OC1C(=O)N(c1ccccc1)c1ccccc1 (stereo not drawn)
inactive: [3] 96 % of control | dose: 200.0 mg/kg/injection, schedule: Q04DX003 (ip), vehicle: Klucel (hydroxypropylcellulose) (HPC) 94 % of control | dose: 400.0 mg/kg/injection, schedule: Q04DX003 (ip), vehicle: Klucel (hydroxypropylcellulose) (HPC) 88 % of control

CCCCOC1OCN(Cc2ccccc2)CC1(C)C (stereo not drawn)
inactive: [4] 111 % of control | [5] 123 % of control | [6] 122 % of control

CC(C)OP(=O)(OC(C)C)c1ccncc1
inactive: dose: 100.0 mg/kg/injection, schedule: Q01DX001 (ip), vehicle: saline 99 % of control | dose: 200.0 mg/kg/injection, schedule: Q01DX001 (ip), vehicle: saline 96 % of control | dose: 400.0 mg/kg/injection, schedule: Q01DX001 (ip), vehicle: saline 101 % of control

O=c1[nH]c(-c2ccc(Cl)cc2)nc2sc3c(c12)CCCC3
inactive: dose: 50.0 mg/kg/injection, schedule: Q01DX005 (ip), vehicle: Klucel (hydroxypropylcellulose) (HPC) 86 % of control | dose: 100.0 mg/kg/injection, schedule: Q01DX005 (ip), vehicle: Klucel (hydroxypropylcellulose) (HPC) 90 % of control | dose: 200.0 mg/kg/injection, schedule: Q01DX005 (ip), vehicle: Klucel (hydroxypropylcellulose) (HPC) 99 % of control

C/C=C1/C[N+]2(C)CCC34c5ccccc5NC32C(O)CC1C4(CO)C(=O)OC (stereo not drawn)
inactive: dose: 2.0 mg/kg/injection, schedule: Q01DX009 (ip), vehicle: saline 109 % of control | dose: 4.0 mg/kg/injection, schedule: Q01DX009 (ip), vehicle: saline 106 % of control | dose: 8.0 mg/kg/injection, schedule: Q01DX009 (ip), vehicle: saline 100 % of control | dose: 16.0 mg/kg/injection, schedule: Q01DX009 (ip), vehicle: saline 106 % of control

COc1ccc2c([O-])c3[n+](c(OC)c2c1OC)CCc1cc2c(cc1-3)OCO2
inactive: dose: 50.0 mg/kg/injection, schedule: Q04DX002 (ip), vehicle: saline with Tween-80 94 % of control | [7] 104 % of control | [8] 103 % of control

NC(N)=NC(N)=Nc1ccc(Cl)c(Cl)c1
inactive: [9] 103 % of control | [10] 103 % of control and 106 % of control | [4] 112 % of control and 93 % of control | [5] 88 % of control | dose: 100.0 mg/kg/injection, schedule: Q04DX003 (ip), vehicle: saline 109 % of control

COc1ccc(-c2cc(-c3cc(-c4ccc(OC)cc4)on3)no2)cc1
inactive: [11] 100 % of control | [12] 92 % of control | [13] 97 % of control

CCN1C(=O)N(CC)C2(CC(=O)c3ccccc3O2)C1=O (stereo not drawn)
inactive: [11] 111 % of control | [12] 108 % of control | [13] 110 % of control

[Co+2].[O-]c1ccccc1/C=N/Nc1ccccn1.[O-]c1ccccc1/C=N/Nc1ccccn1
inactive: [7] 91 % of control | [8] 90 % of control | dose: 400.0 mg/kg/injection, schedule: Q04DX002 (ip), vehicle: saline with Tween-80 95 % of control

O=c1c(-c2ccccc2)coc2cc(O)ccc12
inactive: [14] 105 % of control | [15] 89 % of control | [16] 88 % of control

O=C(SCC(/C=N/Nc1ccc([N+](=O)[O-])cc1[N+](=O)[O-])c1ccccc1)c1ccccc1 (stereo not drawn)
inactive: dose: 100.0 mg/kg/injection, schedule: Q01DX001 (ip), vehicle: Klucel (hydroxypropylcellulose) (HPC) 92 % of control | dose: 200.0 mg/kg/injection, schedule: Q01DX001 (ip), vehicle: Klucel (hydroxypropylcellulose) (HPC) 89 % of control | dose: 400.0 mg/kg/injection, schedule: Q01DX001 (ip), vehicle: Klucel (hydroxypropylcellulose) (HPC) 92 % of control

O=C1C2=C(Nc3ccccc3N2)OC1c1ccccc1O (stereo not drawn)
inactive: [17] 98 % of control | [18] 91 % of control | [19] 91 % of control

Nc1ccc(-c2csc(-c3ccccc3)n2)c(Cl)c1
inactive: dose: 12.5 mg/kg/injection, schedule: Q01DX009 (ip), vehicle: Klucel (hydroxypropylcellulose) (HPC) 98 % of control and 99 % of control | dose: 25.0 mg/kg/injection, schedule: Q01DX009 (ip), vehicle: Klucel (hydroxypropylcellulose) (HPC) 103 % of control and 115 % of control | dose: 50.0 mg/kg/injection, schedule: Q01DX009 (ip), vehicle: Klucel (hydroxypropylcellulose) (HPC) 103 % of control and 113 % of control

CCOP(=O)(O)C1CCCC(C)[N-]1.CCOP(=O)(O)C1CCCC(C)[N-]1.[Fe+2] (stereo not drawn)
inactive: dose: 25.0 mg/kg/injection, schedule: Q04DX003 (ip), vehicle: Klucel (hydroxypropylcellulose) (HPC) 101 % of control | dose: 50.0 mg/kg/injection, schedule: Q04DX003 (ip), vehicle: Klucel (hydroxypropylcellulose) (HPC) 95 % of control | [3] 100 % of control and 89 % of control

CCOc1cc2c(cc1Cc1cc(OC)c(OC)c(OC)c1)OCO2
inactive: [17] 91 % of control | [18] 98 % of control | [19] 86 % of control

Cc1ccc(NC(=O)Oc2cc(C)c(I)cc2C)cc1Cl
inactive: [4] 112 % of control | [5] 112 % of control | [6] 95 % of control

CCOC1(C(C)O)CC(c2ccccc2)=NO1 (stereo not drawn)
inactive: [14] 108 % of control | [15] 101 % of control | [16] 100 % of control

COC(=O)CCC(=O)Nc1c(C)cccc1C(C)C
inactive: [14] 105 % of control | [15] 99 % of control | [16] 99 % of control

COc1cc(-c2c(C#N)c(OC)[nH]c(=O)c2C#N)cc(OC)c1OC
inactive: [9] 105 % of control | [10] 102 % of control | [4] 102 % of control and 105 % of control | [5] 96 % of control | [6] 95 % of control

C=C(C)C1(C(=O)OCC(Cl)(Cl)Cl)NC(=O)C(NC(=O)COc2ccccc2)=CO1 (stereo not drawn)
inactive: [20] 99 % of control | [21] 88 % of control | [1] 95 % of control

CCOC(=O)c1c[nH]c2ccc(N(CCO)CCO)cc12
inactive: [20] 102 % of control | [21] 105 % of control | [1] 108 % of control

O=Cc1cc(O)ccc1O
inactive: [2] 103 % of control and 114 % of control

From PubChem BioAssay AID330 (DTP/NCI, 2004)
